Where two headings read alike, the source gives them in different places.
Compound: tert-Butyl ((4R,10R)-10-(benzyloxy)-4-methyl-25,10-bis(trifluoromethyl)-3-oxa-1(2,5)-oxadiazola-2(2,6)-pyridinacyclodecaphane-23-yl)carbamate
- ring closure, isolated yield (ether bond, 14-membered ring, PPh3/DIAD, toluene, 30.2 mM): 52%

Compound: C[C@@H]1C/C=C\CCC(OCc2ccccc2)(C(F)(F)F)C2=NN=C(O2)c2nc(c(C(F)(F)F)cc2NC(=O)OC(C)(C)C)O1 (stereo partly drawn)
- ring closure, isolated yield (from C[C@H](CC[P+](c1ccccc1)(c1ccccc1)c1ccccc1)Oc1nc(-c2nnc(C(CCC=O)(OCc3ccccc3)C(F)(F)F)o2)c(N(C(=O)OC(C)(C)C)C(=O)OC(C)(C)C)cc1C(F)(F)F, other bond, 14-membered ring, NaOtBu, THF, 11.2 mM): 50%

Compound: C[C@H]1CCCCC[C@](O)(C(F)(F)F)C(=O)NNC(=O)c2nc(c(C(F)(F)F)cc2NC(=O)OC(C)(C)C)O1
- ring closure, isolated yield (from C[C@@H](CCCCC[C@@](O)(C(=O)O)C(F)(F)F)Oc1nc(C(=O)NN)c(NC(=O)OC(C)(C)C)cc1C(F)(F)F, amide bond, 15-membered ring, HATU/DIEA, DMF (DIEA added in 2-MeTHF), 21.9 mM): 15%
